TGI data for 23 compounds are collected here from PubChem BioAssay (NCI).

Assay in all cases: NCI-60 cell line screen, 48 h
In experiment [1] the test system is TK-10 renal.
Experiment [2] has as its system OVCAR-5 ovarian.
In experiment [3] the test system is SF-539 CNS.
Experiment [4] concerns OVCAR-4 ovarian.
The test system of experiment [5] is NCI/ADR-RES ovarian.
In experiment [6] the test system is OVCAR-3 ovarian.
For experiment [7], the system named is MDA-MB-231 breast.
Experiment [8] relates to SK-OV-3 ovarian.
Experiment [9] has as its system SNB-75 CNS.
Experiment [10] concerns PC-3 prostate.
Experiment [11] relates to MDA-N.
The test system of experiment [12] is KM12 colon.

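Step 1: Grow cells in 96-well plates. Step 2: Expose to compound for 48 hours at 5 concentrations. Step 3: Interpolate endpoints linearly; if unreached, use highest concentration. At the TGI there is no net growth.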 Where a SMILES comes first, the peptide text is derived from it. The star is where a group is joined. Boc = CC(C)(C)OC(=O)*; Bn = c1ccc(C*)cc1 Bounds are passed on as bounds.

For the compound `COC(=O)/C(C#N)=C(/NCc1ccccc1)Nc1ccccc1`, the TGI in [1], in experiment [2], in experiment [3], in [4], in experiment [5] and in experiment [6] was above 100 µM throughout. Further, the TGI in [7], in [8], in experiment [9], in [10] and in experiment [11] was above 100 µM throughout.

In the case of `O=C1CC2(CCNCC2)C(=O)N1N1CCCCC1`, the TGI in experiment [12], in experiment [1], in experiment [2], in experiment [3], in experiment [4] and in experiment [5] was above 100 µM each time. Besides, the TGI in [6], in [7], in [8], in experiment [9], in experiment [10] and in [11] was above 100 µM each time.

Turning to `N#CCCN(CCCN(C(=O)Nc1ccc(NC(=O)N(CCCN(CCC#N)C(N)=O)c2ccccc2)cc1)c1ccccc1)C(N)=O`, the TGI in experiment [12], in experiment [1], in experiment [2], in experiment [3], in experiment [4] and in experiment [5] was above 100 µM each time. The TGI in experiment [6], in [7], in [8], in experiment [9], in experiment [10] and in [11] was above 100 µM each time.

With `CC(C)(C)CN1[C@@H]2CCCC[C@H]2N(CC(C)(C)C)P1(=O)C(O)/C=C/c1ccccc1` (stereo partly specified), the TGI in experiment [12], in [1], in [2], in experiment [4], in experiment [5] and in experiment [6] was above 100 µM throughout. For the same compound, the TGI in experiment [7], in [8], in [9], in experiment [10] and in [11] was above 100 µM throughout.

With `CN(C)c1cccc(/C=C(\C#N)c2ccccc2)c1`, the TGI in [12] stood at 8.92 µM; in experiment [1], 56.6 µM; in experiment [2] it was 64 µM; in experiment [3], 4.32 µM; in [4] it was 98 µM; in experiment [5] it was 3.5 µM. The TGI is 3.29 µM in [6]; 53.7 µM in experiment [7]; above 49.9 µM in experiment [8]; 5.05 µM in experiment [9]; above 100 µM in [10]; 0.161 µM in experiment [11].

For `COc1ccc2cc(/C=N\NC(=O)Nc3ccc([N+](=O)[O-])cc3)ccc2c1`, the TGI in [12] came to 24.5 µM; in [1] it was 14.4 µM; in experiment [2], 48.6 µM; in experiment [3], 18.3 µM; in experiment [4], 15.9 µM; in experiment [5], 20.1 µM. Further, the TGI turned out to be 44.1 µM in experiment [6]; 19.1 µM in experiment [7]; 18.5 µM in experiment [8]; 23.1 µM in experiment [9]; 18.8 µM in [10]; 18.5 µM in [11].

Turning to `Oc1ccccc1-c1n[nH]c(-c2ccccc2O)n1`, the TGI in experiment [12], in experiment [1], in experiment [2], in [3], in [4] and in experiment [5] was above 100 µM in each case. For the same compound, the TGI in [7] is above 100 µM; in [8] it was above 100 µM; in experiment [9] it was above 100 µM; in experiment [10], 4.72 µM; in experiment [11], above 100 µM.

For the compound `O=C(/N=C1/OC(CN2CCOCC2)CN1C(=O)Nc1ccccc1)Nc1ccccc1` (stereo unspecified), the TGI in experiment [12], in experiment [1], in [2], in experiment [4], in [5] and in experiment [7] was above 100 µM in each case. In addition, the TGI in experiment [8], in experiment [9], in [10] and in experiment [11] was above 100 µM in each case.

On to `COC(=O)C1=C(C(=O)OC)C(OO)(c2ccccc2)OC1=O` (stereo unspecified), for which the TGI in experiment [12], in experiment [1], in experiment [2], in experiment [3], in experiment [4] and in experiment [5] was above 100 µM throughout. In addition, the TGI in [6], in experiment [7], in experiment [8], in [9], in experiment [10] and in experiment [11] was above 100 µM throughout.

Consider `COC(=O)/C=C/C(=O)Nc1cc(Cl)c(Cl)cc1CC(=O)N(C)[C@H]1CCCC[C@@H]1N1CCCC1`, for which the TGI in [12] was above 56 µM; in experiment [1] it was 11.1 µM; in experiment [2], 32 µM; in experiment [3], 13.3 µM; in experiment [4], above 41.6 µM; in [5], 35.1 µM. Moreover, the TGI in [6] was 16.3 µM; in [7] it was 28.9 µM; in [8], 37.8 µM; in experiment [9] it was 26.8 µM; in experiment [10] it was 17.9 µM; in experiment [11], 25.2 µM.

Turning to `Cc1ccc(C2=Nn3c(nc4sc5c(c4c3=O)CCCC5)SC2)cc1`, the TGI in [12], in experiment [1], in experiment [2], in experiment [3], in experiment [4] and in [5] was above 100 µM in each case. In addition, the TGI in experiment [6], in experiment [7], in experiment [8], in experiment [9], in experiment [10] and in [11] was above 100 µM each time.

For the compound `O=C(/C=C/c1ccccc1Br)c1ccccc1`, the TGI in [12] turned out to be 6.53 µM; in [1] it was 9.83 µM; in experiment [2], 34.2 µM; in experiment [3], 15.6 µM; in experiment [4], 6.03 µM; in experiment [5] it was 17.7 µM. Further, the TGI came out at 22.1 µM in experiment [6]; 27.5 µM in [7]; 30.5 µM in [8]; 25.4 µM in experiment [9]; 23.5 µM in experiment [10]; 18.4 µM in experiment [11].

As for `COC(=O)C(CC(C)C)NC(=O)CNC(=O)C(Cc1ccc(OCc2ccccc2)cc1)NC(=O)C(COCc1ccccc1)NC(=O)OC(C)(C)C` (stereo unspecified) (Boc-S(Bn)Y(Bn)GL-OMe; configuration not given here), the TGI in [12], in experiment [1], in experiment [2], in experiment [3], in experiment [4] and in experiment [5] was above 100 µM each time. Moreover, the TGI in [6], in [7], in experiment [8], in experiment [9], in experiment [10] and in experiment [11] was above 100 µM throughout.

For the compound `COc1ccc(C(c2cc(OC)c(OC)c(OC)c2)N2C(=O)CCC2C(=O)O)cc1` (stereo unspecified), the TGI in experiment [12] is above 100 µM; in experiment [1], above 100 µM; in [2], above 100 µM; in experiment [3] it was 52 µM; in [4] it was above 100 µM; in experiment [5], above 100 µM. In addition, the TGI in experiment [6] was above 100 µM; in experiment [7], above 100 µM; in [8] it was above 100 µM; in experiment [9], above 100 µM; in [10] it was above 100 µM; in [11], 56.9 µM.

Turning to `O=C1OC(C2Cc3ccc4c(c3C2=O)CCCC4)c2ccccc21` (stereo unspecified), the TGI in experiment [12] is above 100 µM; in experiment [1], above 100 µM; in experiment [2], above 100 µM; in experiment [3], 66.7 µM; in experiment [4], above 100 µM; in experiment [5] it was above 100 µM. Besides, the TGI was 88.2 µM in [6]; above 100 µM in [7]; above 100 µM in experiment [8]; above 100 µM in experiment [9]; above 100 µM in experiment [10]; above 100 µM in experiment [11].

For the compound `COc1cc(/C=C2\CC(C)C/C(=C\c3ccc(O)c(OC)c3)C2=O)ccc1O` (stereo unspecified), the TGI in [12] was 3.86 µM; in experiment [1] it was 15.8 µM; in experiment [2] it was 40.8 µM; in [3], above 23.7 µM; in experiment [4] it was 8.96 µM; in experiment [5], above 62.2 µM. For the same compound, the TGI in experiment [6] amounted to 6.47 µM; in experiment [7], 8.35 µM; in [8] it was 12.4 µM; in experiment [9] it was 15 µM; in [10], 20.5 µM; in [11] it was 7.37 µM.

As for `CC(C)(C)Cc1cc(O)ccc1O`, the TGI in [12] is above 100 µM; in experiment [1] it was above 100 µM; in experiment [2] it was above 100 µM; in [3] it was above 100 µM; in experiment [4] it was above 100 µM; in [5], 94.5 µM. Further, the TGI in [6], in experiment [7], in experiment [8], in [9], in experiment [10] and in experiment [11] was above 100 µM in each case.

Consider `Nc1ncnc2c1ncn2[C@@H]1C[C@H](NO)[C@@H](O)[C@H]1O`, for which the TGI in experiment [12], in experiment [1], in experiment [2], in experiment [3], in [4] and in [5] was above 100 µM each time. Besides, the TGI in experiment [6], in experiment [7], in experiment [8], in experiment [9], in [10] and in [11] was above 100 µM in each case.

Consider `CN1C(=O)C(C#N)C2C[C@@]1(C)Oc1ccccc12` (stereo partly specified), for which the TGI in experiment [12], in experiment [1], in [2], in experiment [4], in experiment [5] and in experiment [6] was above 100 µM in each case. For the same compound, the TGI in experiment [7], in experiment [8], in [9], in experiment [10] and in experiment [11] was above 100 µM each time.

Consider `CC(C)=CC[C@H]1C[C@@]2(CC=C(C)C)C(=O)/C(=C(/O)c3ccccc3)C(=O)[C@](CC=C(C)C)(C2=O)C1(C)C`, for which the TGI in experiment [12] was 19.9 µM; in experiment [1], 20.6 µM; in [2], 19.5 µM; in experiment [3], 48 µM; in [4], 26.4 µM; in [5], 42.2 µM. Besides, the TGI in [7] amounted to 22.3 µM; in experiment [8], 24.3 µM; in experiment [9], 33.4 µM; in experiment [10], 19.3 µM; in experiment [11], 20.1 µM.

Consider `CN(C)CCN=C1Nc2ccccc2C(=O)N2CSCC12` (stereo unspecified), for which the TGI in [12], in [1], in [2], in experiment [4], in experiment [5] and in experiment [6] was above 100 µM throughout. The TGI in [7], in experiment [8], in [9], in experiment [10] and in experiment [11] was above 100 µM in each case.

Regarding `Cc1ccc(S(=O)(=O)NC(=O)NCC(N)=O)cc1`, the TGI in experiment [12], in [1], in experiment [2], in [3], in experiment [4] and in experiment [5] was above 100 µM each time. In addition, the TGI in [7], in experiment [8], in experiment [9], in experiment [10] and in experiment [11] was above 100 µM in each case.

`CCOC(=O)CNC(=O)CNC(=O)CNC(=O)CNNc1c(OCc2ccccc2)c(=O)c1=O`: the TGI in experiment [12], in experiment [1], in experiment [2], in [4], in experiment [5] and in experiment [6] was above 100 µM throughout. In addition, the TGI in experiment [7], in [8], in experiment [9], in [10] and in [11] was above 100 µM in each case.
